Source: ChEMBL document CHEMBL6153150, “Design, Synthesis, and Biological Evaluation of Chiral-Proline Derivatives as Novel HSP90 Inhibitors” (ACS Med Chem Lett, 2025)

Tests used:
[1] = biological target: Heat shock protein HSP90 (Homo sapiens, UniProt P07900+P08238); experiment: Binding affinity to Hsp90 (unknown origin) assessed as dissociation constant incubated for 30 mins by fluorescence spectrophotometric analysis; type: protein assay
[2] = system: HCT-116; experiment: Antiproliferative activity against human HCT-116 cells assessed as cell viability inhibition rate incubated for 72 hr by MTT assay; type: functional, cell-based; conditions: HCT-116, 72 h
[3] = system: MCF7; experiment: Antiproliferative activity against human MCF7 cells assessed as cell viability inhibition rate incubated for 72 hr by MTT assay; type: functional, cell-based; conditions: MCF7, 72 h
[4] = system: SK-BR-3; experiment: Antiproliferative activity against human SK-BR-3 cells assessed as cell viability inhibition rate incubated for 72 hr by MTT assay; type: functional, cell-based; conditions: SK-BR-3, 72 h
[5] = system: K562; experiment: Antiproliferative activity against human K562 cells assessed as cell viability inhibition rate incubated for 72 hr by MTT assay; type: functional, cell-based; conditions: K562, 72 h
[6] = system: A549; experiment: Antiproliferative activity against human A549 cells assessed as cell viability inhibition rate incubated for 72 hr by MTT assay; type: functional, cell-based; conditions: A549, 72 h

Row | Compound | Kd [1] | IC50 [2] | IC50 [3] | IC50 [4] | IC50 [5] | IC50 [6]
1 | CC(C)CN(C)C(=O)[C@H]1C[C@H](c2ccccc2)CN1C(=O)c1cc(C(C)C)c(O)cc1O | 1573 nM | – | – | – | – | –
2 | CCOCCNC(=O)[C@H]1C[C@H](c2ccccc2)CN1C(=O)c1cc(C(C)C)c(O)cc1O | 124 nM | – | – | – | – | –
3 | CC(C)NC(=O)[C@H]1C[C@H](c2ccccc2)CN1C(=O)c1cc(C(C)C)c(O)cc1O | 1237 nM | – | – | – | – | –
4 | CC(C)c1cc(C(=O)N2C[C@@H](c3ccccc3)C[C@@H]2C(=O)N(C)Cc2ccccc2)c(O)cc1O | 2331 nM | – | – | – | – | –
5 | COc1ccc(C(C)NC(=O)[C@H]2C[C@H](c3ccccc3)CN2C(=O)c2cc(C(C)C)c(O)cc2O)cc1 (some centres not stated) | 463 nM | 652 nM | 170 nM | 721 nM | 533 nM | 172 nM
6 | CC(C)C(C)NC(=O)[C@H]1C[C@H](c2ccccc2)CN1C(=O)c1cc(C2CC2)c(O)cc1O (some centres not stated) | 345 nM | 507 nM | 204 nM | 787 nM | 631 nM | 105 nM
7 | CC(C)c1cc(C(=O)N2C[C@@H](c3ccccc3)C[C@@H]2C(=O)NCc2ccc3ccccc3n2)c(O)cc1O | 432 nM | 537 nM | 87 nM | 634 nM | 531 nM | 78 nM
8 | CC(C)c1cc(C(=O)N2C[C@@H](c3ccccc3)C[C@@H]2C(=O)NC2CCCC2)c(O)cc1O | 876 nM | – | – | – | – | –
9 | O=C(NCc1ccccn1)[C@H]1C[C@H](c2ccccc2)CN1C(=O)c1cc(C2CC2)c(O)cc1O | 57 nM | 263 nM | 47 nM | 351 nM | 876 nM | 67 nM
10 | COCCN(CCOC)C(=O)[C@H]1C[C@H](c2ccccc2)CN1C(=O)c1cc(C2CC2)c(O)cc1O | 637 nM | 795 nM | 336 nM | 761 nM | 596 nM | 163 nM
11 | CCC1CCCCN1C(=O)[C@H]1C[C@H](c2ccccc2)CN1C(=O)c1cc(C(C)C)c(O)cc1O (some centres not stated) | 1677 nM | – | – | – | – | –
12 | CC(C)c1cc(C(=O)N2C[C@@H](c3ccccc3)C[C@@H]2C(=O)NCc2ccccc2)c(O)cc1O | 87 nM | 303 nM | 61 nM | 267 nM | 471 nM | 39 nM
13 | CCCN1CCN(C(=O)[C@H]2C[C@H](c3ccccc3)CN2C(=O)c2cc(C(C)C)c(O)cc2O)CC1 | 1033 nM | – | – | – | – | –
14 | COc1ccc(C(C)NC(=O)[C@H]2C[C@H](c3ccccc3)CN2C(=O)c2cc(C3CC3)c(O)cc2O)cc1 (some centres not stated) | 263 nM | 641 nM | 126 nM | 451 nM | 667 nM | 82 nM
15 | CC(C)CNC(=O)[C@H]1C[C@H](c2ccccc2)CN1C(=O)c1cc(C(C)C)c(O)cc1O | 165 nM | 435 nM | 87 nM | 653 nM | 539 nM | 63 nM
16 | Cc1ccc(CNC(=O)[C@H]2C[C@H](c3ccccc3)CN2C(=O)c2cc(C3CC3)c(O)cc2O)cc1 | 153 nM | 471 nM | 89 nM | 431 nM | 566 nM | 89 nM
17 | CC(C)c1cc(C(=O)N2C[C@@H](c3ccccc3)C[C@@H]2C(=O)N2CCCCC2C)c(O)cc1O (some centres not stated) | 2171 nM | – | – | – | – | –
18 | CCNC(=O)[C@H]1C[C@H](c2ccccc2)CN1C(=O)c1cc(C(C)C)c(O)cc1O | 1132 nM | – | – | – | – | –
19 | CCN(C(=O)[C@H]1C[C@H](c2ccccc2)CN1C(=O)c1cc(C(C)C)c(O)cc1O)C(C)C | 2479 nM | – | – | – | – | –

Row | Compound | Kd [1] | IC50 [2] | IC50 [3] | IC50 [4] | IC50 [5] | IC50 [6]
20 | CCOCCCNC(=O)[C@H]1C[C@H](c2ccccc2)CN1C(=O)c1cc(C2CC2)c(O)cc1O | 937 nM | 1010 nM | 183 nM | 733 nM | 504 nM | 203 nM
21 | CCN(CC)CCNC(=O)[C@H]1C[C@H](c2ccccc2)CN1C(=O)c1cc(C(C)C)c(O)cc1O | 431 nM | – | – | – | – | –
22 | COc1ccc(CNC(=O)[C@H]2C[C@H](c3ccccc3)CN2C(=O)c2cc(C(C)C)c(O)cc2O)cc1 | 147 nM | 473 nM | 107 nM | 732 nM | 541 nM | 103 nM
23 | CCCCNC(=O)[C@H]1C[C@H](c2ccccc2)CN1C(=O)c1cc(C(C)C)c(O)cc1O | 1873 nM | – | – | – | – | –
24 | CC(C)c1cc(C(=O)N2C[C@@H](c3ccccc3)C[C@@H]2C(=O)N2CCC(N3CCCCC3)CC2)c(O)cc1O | 983 nM | – | – | – | – | –
25 | CC(C)OCCCNC(=O)[C@H]1C[C@H](c2ccccc2)CN1C(=O)c1cc(C(C)C)c(O)cc1O | 202 nM | – | – | – | – | –
26 | CC(C)c1cc(C(=O)N2C[C@@H](c3ccccc3)C[C@@H]2C(=O)N2CCN(C(C)C)CC2)c(O)cc1O | 1021 nM | – | – | – | – | –
27 | CC(C)c1cc(C(=O)N2C[C@@H](c3ccccc3)C[C@@H]2C(=O)N2CCCC2)c(O)cc1O | 2033 nM | – | – | – | – | –
28 | CC(C)c1cc(C(=O)N2C[C@@H](c3ccccc3)C[C@@H]2C(=O)NCc2ccccc2Cl)c(O)cc1O | 351 nM | 461 nM | 103 nM | 572 nM | 633 nM | 72 nM
29 | CC(C)c1cc(C(=O)N2C[C@@H](c3ccccc3)C[C@@H]2C(=O)NC2CC2)c(O)cc1O | 1213 nM | – | – | – | – | –
30 | CCCNC(=O)[C@H]1C[C@H](c2ccccc2)CN1C(=O)c1cc(C(C)C)c(O)cc1O | 1653 nM | – | – | – | – | –
31 | CCOCCCNC(=O)[C@H]1C[C@H](c2ccccc2)CN1C(=O)c1cc(C(C)C)c(O)cc1O | 1098 nM | 1130 nM | 231 nM | 933 nM | 707 nM | 203 nM
32 | CC1CCCN(C(=O)[C@H]2C[C@H](c3ccccc3)CN2C(=O)c2cc(C(C)C)c(O)cc2O)C1 (some centres not stated) | 2162 nM | – | – | – | – | –
33 | CC(C)c1cc(C(=O)N2C[C@@H](c3ccccc3)C[C@@H]2C(=O)NC2CCCCC2)c(O)cc1O | 1076 nM | – | – | – | – | –
34 | CC(C)c1cc(C(=O)N2C[C@@H](c3ccccc3)C[C@@H]2C(=O)NC(C)c2ccccc2)c(O)cc1O (some centres not stated) | 232 nM | 514 nM | 113 nM | 703 nM | 621 nM | 87 nM
35 | O=C(NCc1ccccc1Cl)[C@H]1C[C@H](c2ccccc2)CN1C(=O)c1cc(C2CC2)c(O)cc1O | 236 nM | 301 nM | 76 nM | 331 nM | 457 nM | 42 nM
36 | O=C(NCc1ccc(F)cc1F)[C@H]1C[C@H](c2ccccc2)CN1C(=O)c1cc(C2CC2)c(O)cc1O | 157 nM | 272 nM | 37 nM | 256 nM | 378 nM | 54 nM
37 | CC(C)c1cc(C(=O)N2C[C@@H](c3ccccc3)C[C@@H]2C(=O)N2CCN(C)CC2)c(O)cc1O | 2310 nM | – | – | – | – | –
38 | COc1ccc(CNC(=O)[C@H]2C[C@H](c3ccccc3)CN2C(=O)c2cc(C3CC3)c(O)cc2O)cc1 | 168 nM | 631 nM | 167 nM | 631 nM | 561 nM | 113 nM

Row | Compound | Kd [1] | IC50 [2] | IC50 [3] | IC50 [4] | IC50 [5] | IC50 [6]
39 | CCCN(CCC)C(=O)[C@H]1C[C@H](c2ccccc2)CN1C(=O)c1cc(C(C)C)c(O)cc1O | 2516 nM | – | – | – | – | –
40 | COCCNC(=O)[C@H]1C[C@H](c2ccccc2)CN1C(=O)c1cc(C(C)C)c(O)cc1O | 188 nM | – | – | – | – | –
41 | CC(C)CNC(=O)[C@H]1C[C@H](c2ccccc2)CN1C(=O)c1cc(C2CC2)c(O)cc1O | 107 nM | 403 nM | 93 nM | 765 nM | 533 nM | 89 nM
42 | CC(C)c1cc(C(=O)N2C[C@@H](c3ccccc3)C[C@@H]2C(=O)NCC2CC2)c(O)cc1O | 354 nM | – | – | – | – | –
43 | CC(C)c1cc(C(=O)N2C[C@@H](c3ccccc3)C[C@@H]2C(=O)N2CCN(CC3CC3)CC2)c(O)cc1O | 862 nM | – | – | – | – | –
44 | CC(C)c1cc(C(=O)N2C[C@@H](c3ccccc3)C[C@@H]2C(=O)N2CCC(OCC3CC3)CC2)c(O)cc1O | 1632 nM | – | – | – | – | –
45 | CC(C)c1cc(C(=O)N2C[C@@H](c3ccccc3)C[C@@H]2C(=O)N2CCCCC2)c(O)cc1O | 1337 nM | – | – | – | – | –
46 | CCN(C)C(=O)[C@H]1C[C@H](c2ccccc2)CN1C(=O)c1cc(C(C)C)c(O)cc1O | 1873 nM | – | – | – | – | –
47 | CC(C)c1cc(C(=O)N2C[C@@H](c3ccccc3)C[C@@H]2C(=O)N(C)C2CCCCC2)c(O)cc1O | 1762 nM | – | – | – | – | –
48 | CC(NC(=O)[C@H]1C[C@H](c2ccccc2)CN1C(=O)c1cc(C2CC2)c(O)cc1O)c1ccccc1 (some centres not stated) | 201 nM | 631 nM | 101 nM | 633 nM | 702 nM | 107 nM
49 | CC(C)c1cc(C(=O)N2C[C@@H](c3ccccc3)C[C@@H]2C(=O)N2CCN(Cc3ccccc3)CC2)c(O)cc1O | 1033 nM | – | – | – | – | –
50 | CCCCN(C)C(=O)[C@H]1C[C@H](c2ccccc2)CN1C(=O)c1cc(C(C)C)c(O)cc1O | 1637 nM | – | – | – | – | –
51 | CC(C)CCNC(=O)[C@H]1C[C@H](c2ccccc2)CN1C(=O)c1cc(C(C)C)c(O)cc1O | 645 nM | – | – | – | – | –
52 | COCCN1CCN(C(=O)[C@H]2C[C@H](c3ccccc3)CN2C(=O)c2cc(C(C)C)c(O)cc2O)CC1 | 637 nM | – | – | – | – | –
53 | O=C(c1ccc(O)cc1)N1Cc2ccccc2C1 | 4300 nM | – | – | – | – | –
54 | CC(C)c1cc(C(=O)N2C[C@@H](c3ccccc3)C[C@@H]2C(=O)N(C)C2CC2)c(O)cc1O | 1871 nM | – | – | – | – | –
55 | CCCCCNC(=O)[C@H]1C[C@H](c2ccccc2)CN1C(=O)c1cc(C(C)C)c(O)cc1O | 2161 nM | – | – | – | – | –
56 | CC(C)c1cc(C(=O)N2C[C@@H](c3ccccc3)C[C@@H]2C(=O)N2CCN(c3ncccn3)CC2)c(O)cc1O | 1631 nM | – | – | – | – | –
57 | CC(C)c1cc(C(=O)N2C[C@@H](c3ccccc3)C[C@@H]2C(=O)NCCCn2ccnc2)c(O)cc1O | 1376 nM | – | – | – | – | –
